Where “and” joins values, the source holds several entries; their conditions need not be identical. Equal entries are not always repeated. Where two headings read alike, the source gives them in different places.
Tests used:
[1] = pKa determination by titration with HCl (Gran plot); type: physicochemical; conditions: n = 4
Method: The pKa was determined using titration according to our previously described protocol. A 1 mg/mL solution of 5Me3F4AP was prepared, of which 5 ml was titrated with 0.01 M HCl solution beyond the equivalence point. After each incremental addition of titrant, the sample was stirred and the pH reading was taken with a pH meter. The Gran plot of the titration was analyzed to obtain the pKa (see the plot in Supporting Information, Fig. S3). […] The titration was repeated four times each for each compound.

CYP2E1 = CYP2E1 (Homo sapiens, UniProt P05181); test: competitive CYP2E1 inhibition assay (Vivid CYP2E1 screening kit)
Method: The relative metabolic stability towards CYP2E1 was assessed with the competitive CYP2E1 inhibition assay utilizing the life technologies™ vivid® CYP2E1 screening kit, as described in previous studies. In this assay, fluorescence emitted by the metabolic product of a specific CYP2E1 substrate included in the kit, was measured in the absence and presence of substrate competitors.
Afterwards, 50 µL master pre-mix 2× (40 nM) CYP2E1 BACULOSOMES® and 2× (0.6 units/mL) vivid® regeneration system in 1× reaction buffer) was added to each well. The plate was incubated for 10 min at room temperature to allow the compounds to interact with the CYP2E1 in the absence of enzyme turnover. Next, the reaction was initiated by adding 10 µL per well of 10× (100 μM) Vivid® substrate (2H-1-benzopyran-3-carbonitrile,7-(ethoxy-methoxy)-2-oxo-(9Cl)) and 10× (300 μM) Vivid® NADP^+ mixture. Immediately (in less than 2 min), the plate was transferred into the fluorescent plate reader and fluorescence was monitored over 60 min (reads in 1 min intervals) at 415 nm as excitation wavelength and 460 nm as emission wavelength. The obtained reads were plotted using GraphPad Prism 9.
A similar vivid® CYP2E1 assay was conducted as described above. […] The plate fluorescence was monitored over 60 min (reads in 1 min intervals) at 415 nm as excitation wavelength and 460 nm as emission wavelength. The reads at 60 min (recalculated by the linear trend line equation) of each concentration were used and fitted with GraphPad Prism9 dose-response-inhibition (concentration is log) curve fitting with weighting method (weighted by 1/Y^2) to calculate the IC50 values. A similar procedure was used for determining the IC50 of 3F4AP.

[2] = cited from earlier work
[3] = molecular target: T1, Shaker voltage-gated potassium channel (Drosophila melanogaster, UniProt P08510); test: cut-open voltage clamp electrophysiology of K+ currents in Xenopus laevis oocytes expressing Shaker; type: cell-based, D. melanogaster
Method: Blocking potency of 5Me3F4AP was evaluated on the voltage-gated Shaker (homologous to mammalian Kv1.2) ion channel expressed in Xenopus laevis oocytes, as previously described. Briefly, each oocyte expressing the Shaker channel was voltage-clamped in a cut-open voltage clamp (COVC) station in order to elicit K^+ currents in response to the voltage stimulus protocol, which entailed steps of 50 ms from − 100 to 60 mV in increments of 10 mV. For COVC measurements, the external recording solution was composed (in mM) of 12 KOH, 2 Ca(OH)2, 105 NMDG-MES (N-methyl-D-glucamine)-methylsufonate, 20 HEPES (4-(2-hydroxyethyl)-1-piperazineethanesulfonic acid). The internal recording solution was composed of 120 KOH, 2 EGTA (ethylene glycol-bis(β-aminoethyl ether)-N,N,N,N-tetraacetic acid), and 20 HEPES. […] Each pH solution was adjusted with MES (2-(N-morpholino)ethanesulfonic acid). For measurements at pH = 9.1, HEPES was substituted by CHES (2-(cyclohexylamino)-ethanesulfonic acid). Each oocyte expressing the Shaker ion channel was voltage-clamped to record K^+ currents, first in the absence of 5Me3F4AP, and subsequently with the addition of 5Me3F4AP, from 0.0001 to 10 mM. Relative current (Irel) was quantified as the […] of the indicated concentration of 5Me3F4AP. Finally, K^+ currents were amplified with the oocyte clamp amplifier CA-1A (Dagan Corporation, Minneapolis, MN, USA) and digitized with the USB-1604-HS-2AO Multifunction Card (Measurement Computing, Norton, MA, USA). All systems were controlled with the GpatchMC64 program (department of anesthesiology, UCLA, Los Angeles, CA, USA) via a PC. Electrophysiology recordings were sampled at 100 kHz and filtered at 10 kHz.
Data analysis was performed as previously described. Briefly, the half-maximal inhibitory concentration of 5Me3F4AP (IC50) was determined by fitting the Irel curve to the Hill equation at each value of V and pH.
Mean values of data ± standard deviation (s.d.) are given or plotted and the number of experiments is denoted by n. Upper and lower limits of the 95% of confidence interval (CI95) are denoted as 10^logIC50+s.d and 10^logIC50-s.d , respectively.

[4] = molecular target: T1, Shaker voltage-gated potassium channel; conditions: cited from earlier work; for δ ± s.d. (electric fraction): pH 7.4, reported previously ref 35; for IC50: pH 7.4, Hermann equation, reported previously ref 35, read-out: IC50 (at V=0) ± s.d.
[5] = parallel artificial membrane permeability assay-blood-brain barrier (BBB) kit; type: in vitro ADME; conditions: PAMPA-BBB; for Papp at 18 h, 500 µM: PBS pH 7.2, 18 h, n = 3, read-out: permeability to an artificial brain membrane (Pe)
Method: The permeability rates of 5Me3F4AP and derivatives were determined using parallel artificial membrane permeability assay-blood–brain barrier (BBB) kit (BioAssay systems, Hayward, USA) following the manufacturer’s protocol. Initially, solutions of each test compound were prepared in DMSO at a concentration of 10 mM. These stock solutions along with the stock solutions of control compounds (high control: promazine hydrochloride, low control: diclofenac) were then diluted with PBS (pH = 7.2) to obtain the donor solutions with a final concentration of 500 μM. At the same time, 200 μM of equilibrium standards for each compound and a DMSO blank control solution were prepared.
In the experimental setup, 300 μL of PBS was added to the desired well of the acceptor plate, and 5 μL of BBB lipid solution in dodecane was added to membranes of the donor plate. Next, 200 μL of the donor solutions of each test compound and each permeability control were added to the duplicate wells of the donor plate. The donor plate was carefully placed on the acceptor plate and incubator for 18 h at room temperature. After incubation, UV absorption measurements were conducted using 100 μL of the resulting solutions from the acceptor plate and the equilibrium standards. UV absorption of the controls was measured by running a UV scan in the range of 200–500 nm. UV absorption of 5Me3F4AP and derivatives was measured using HPLC equipped with a UV detector and C18 column.

[6] = cited from earlier work; remark: listed apart in the source
[7] = cited from earlier work; remark: listed apart in the source
[8] = design: method as in PMID 38690718; conditions: 35 min post-injection, cited from earlier work
[9] = design: method as in PMID 33090071; conditions: monkeys, 2 h post injection ref 26; cited from earlier work
[10] = octanol-water partition coefficient (logD) at pH 7.4; type: physicochemical
Method: The octanol–water partition coefficient (logD) at pH 7.4 was determined according to our previous reported protocol. Briefly, PBS (900 μL), 1-octanol (900 μL), and a 10 mg/ mL aqueous solution of each compound (2 μL) were added to a 2 mL HPLC vial. The compounds were partitioned between the layers via vortexing and centrifuged at 1000 g for 1 min to allow for phase separation. A 10 μL portion was taken from each layer (autoinjector was set up to draw volume at two different heights) and analyzed by HPLC. The relative concentration in each phase was determined by integrating the area under each peak and comparing the ratio of the areas from the octanol and aqueous layers. A calibration curve was performed to ensure that the concentrations detected were within the linear range of the detector (see Figs. S1 and S2 in Supporting Information). This procedure was repeated four times for each compound.

[11] = compound solution titrated with 0.01 M HCl
[12] = final concentration 25 µM, 60 min kinetic measurement

Chain of CYP2E1 (P05181 whole entry): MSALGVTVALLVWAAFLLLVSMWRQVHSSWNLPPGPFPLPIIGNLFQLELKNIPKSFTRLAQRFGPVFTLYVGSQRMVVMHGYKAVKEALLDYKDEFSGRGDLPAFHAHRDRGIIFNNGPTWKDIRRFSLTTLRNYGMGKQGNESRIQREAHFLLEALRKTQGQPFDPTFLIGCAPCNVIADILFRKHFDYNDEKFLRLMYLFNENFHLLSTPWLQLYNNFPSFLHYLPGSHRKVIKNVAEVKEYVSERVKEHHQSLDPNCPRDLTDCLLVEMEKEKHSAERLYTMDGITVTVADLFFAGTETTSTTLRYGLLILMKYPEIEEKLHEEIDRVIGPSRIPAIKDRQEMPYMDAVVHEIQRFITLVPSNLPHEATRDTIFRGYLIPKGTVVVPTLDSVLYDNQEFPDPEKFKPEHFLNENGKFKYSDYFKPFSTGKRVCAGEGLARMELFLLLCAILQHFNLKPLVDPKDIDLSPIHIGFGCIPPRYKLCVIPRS
T1 sequence (P08510 whole entry): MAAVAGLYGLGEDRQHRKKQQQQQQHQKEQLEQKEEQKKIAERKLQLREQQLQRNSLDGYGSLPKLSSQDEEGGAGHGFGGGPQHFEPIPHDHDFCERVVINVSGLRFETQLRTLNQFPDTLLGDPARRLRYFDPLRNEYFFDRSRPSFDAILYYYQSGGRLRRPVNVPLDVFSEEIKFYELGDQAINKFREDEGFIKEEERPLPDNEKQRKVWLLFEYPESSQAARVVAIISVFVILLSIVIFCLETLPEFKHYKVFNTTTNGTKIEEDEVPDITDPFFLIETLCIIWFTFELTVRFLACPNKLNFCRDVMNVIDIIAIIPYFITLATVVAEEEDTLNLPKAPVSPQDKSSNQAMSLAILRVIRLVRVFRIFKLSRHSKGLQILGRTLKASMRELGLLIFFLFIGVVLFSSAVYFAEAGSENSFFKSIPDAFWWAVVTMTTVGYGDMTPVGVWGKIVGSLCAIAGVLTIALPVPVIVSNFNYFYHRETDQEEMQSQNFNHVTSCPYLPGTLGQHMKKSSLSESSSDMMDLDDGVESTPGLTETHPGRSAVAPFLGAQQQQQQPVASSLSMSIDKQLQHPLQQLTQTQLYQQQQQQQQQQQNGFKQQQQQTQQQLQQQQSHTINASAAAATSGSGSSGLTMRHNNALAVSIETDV

| SMILES | pKa [1, 11] | reduction in fluorogenic emission / reaction rate vs. blank (CYP2E1; [12]) | δ ± s.d. (electric fraction) [3] | δ ± s.d. (electric fraction) ([3]; pH 9.1) | δ ± s.d. (electric fraction) [4] | Papp at 18 h, 500 µM [5] [×10⁻⁶ cm/s] | pKa [1] | change of IC50 when pH was increased to 9.1 [3] | IC50 ([3]; IC50 (at V=0) ± s.d.) | IC50 [4] [µM] | further results |
| --- | --- | --- | --- | --- | --- | --- | --- | --- | --- | --- | --- |
| Nc1ccncc1 [4AP, 4-aminopyridine] | > 9 | minor reduction in fluorogenic emission | 0.41 ± 0.06 | 0.41 ± 0.05 | 0.41 ± 0.08 | – | – | – | – | – | pKa ([1]; solution of the compound titrated with 0.01 M HCl): 9.19; parent fraction in plasma ([2]; 24 h post oral administration ref 42): ~ 70% |
| Nc1ccncc1F [3F4AP, 3-fluoro-4-aminopyridine] | – | substantial decrease in rate | 0.41 ± 0.03 | 0.52 ± 0.02 | 0.46 ± 0.10 | 3.11 ± 0.29 | 7.37 ± 0.07 | increased around three-fold | 159 µM and 65 µM | 122 ± 4 | IC50 (CYP2E1; human, IC50 for CYP2E1 inhibition, reads at 60 min, three replicates): 15.4 ± 5.1 µM |
| N[C@@H]1C[C@H]1c1ccccc1 (racemic) [tranylcypromine] | – | – | – | – | – | – | – | – | – | – | reduction in fluorogenic emission / reaction rate vs. blank (CYP2E1): most pronounced reduction in fluorogenic emission |
| Nc1ccncc1[18F] [[^18F]3F4AP, [^18F]3-fluoro-4-aminopyridine] | – | – | – | – | – | – | – | – | – | – | logD [6]: 0.41; pKa [7]: 7.65; plasma parent fraction (PPF) remaining ([2]; humans, 30 min post injection ref 27): < 50%; plasma parent fraction (PPF) ([8]; anesthetized mice (isoflurane), n = 10 ref 29): 74.8 ± 1.6; plasma parent fraction (PPF) ([8]; awake mice, n = 11 ref 29): 17.7 ± 1.7; plasma parent fraction (PPF) [9]: > 90% |
| Cc1cnccc1N [3Me4AP, 3-methyl-4AP] | > 9 | – | 0.28 ± 0.10 | 0.47 ± 0.03 | 0.43 ± 0.10 | – | – | three-fold | 44 µM and 10 µM | 21 ± 1 | – |
| Cc1cncc(F)c1N [5Me3F4AP, 3-fluoro-5-methylpyridin-4-amine] | – | reaction rate between 4AP and 3F4AP | – | 0.40 ± 0.04 | – | 8.81 ± 1.83 | 7.46 ± 0.01 | – | – | – | permeation rate relative to 3F4AP [5]: approximately three times faster than 3F4AP; logD ([10]; 1-octanol/PBS, pH 7.4, pH 7.4, n = 4): 0.664 ± 0.005; logD (octanol/water partition coefficient) ([10]; pH 7.4, n = 4): 0.66; IC50 at 60 min (CYP2E1; human, recombinant CYP2E1 BACULOSOMES (Vivid CYP2E1 screening kit), IC50 for CYP2E1 inhibition, reads at 60 min, three replicates): 36.2 ± 2.5 µM; CYP2E1-mediated oxidation rate relative to 3F4AP (CYP2E1; kinetic measurement): about two times slower than 3F4AP; block of Shaker K+ currents ([3]; 1 mM, pH 6.4, 7.4 and 9.1): efficiently blocks the channels; Hill parameter h ([3]; Hill fit at 40 mV, all experimental conditions): ≈ 1; change of IC50 when pH was increased to 9.1 ([3]; IC50 at 40 mV, Hill equation): increased around three-fold; δ ± s.d. (electric fraction) ([3]; pH 6.4): 0.39 ± 0.04; IC50 ([3]; pH 6.4, Hermann equation, read-out: IC50 (at V=0) ± s.d.): 118 ± 17 µM; δ ± s.d. (electric fraction) ([3]; pH 7.4): 0.40 ± 0.02; IC50 ([3]; pH 7.4, Hermann equation, read-out: IC50 (at V=0) ± s.d.): 161 ± 25 µM; blocking potency compared with related compounds ([3]; pH 7.4, IC50 at 40 mV): very similar to that of 4AP and 3F4AP; IC50 ([3]; pH 9.1, Hermann equation, read-out: IC50 (at V=0) ± s.d.): 373 ± 84 µM; δ value (electric fraction) ([3]; pH not specified): ~0.4 |
